Source: patent US20040024024A1, “Aromatic sulfone hydroxamates and their use as protease inhibitors” (priority 2001, published 2004)
Counter-ions that a name gives are not always drawn.

Assays:
Test in all cases: In vitro MMP inhibition, IC50 determination (fluorogenic substrate I)
Assay type in all cases: biochemical
Human recombinant MMP-2 = target: T1, Human recombinant MMP-2 (Homo sapiens, UniProt P08253)
T1 construct: made in house; host or cells: MMP-2-transfected p2AHT2 cells
T1 sequence (P08253 110-660): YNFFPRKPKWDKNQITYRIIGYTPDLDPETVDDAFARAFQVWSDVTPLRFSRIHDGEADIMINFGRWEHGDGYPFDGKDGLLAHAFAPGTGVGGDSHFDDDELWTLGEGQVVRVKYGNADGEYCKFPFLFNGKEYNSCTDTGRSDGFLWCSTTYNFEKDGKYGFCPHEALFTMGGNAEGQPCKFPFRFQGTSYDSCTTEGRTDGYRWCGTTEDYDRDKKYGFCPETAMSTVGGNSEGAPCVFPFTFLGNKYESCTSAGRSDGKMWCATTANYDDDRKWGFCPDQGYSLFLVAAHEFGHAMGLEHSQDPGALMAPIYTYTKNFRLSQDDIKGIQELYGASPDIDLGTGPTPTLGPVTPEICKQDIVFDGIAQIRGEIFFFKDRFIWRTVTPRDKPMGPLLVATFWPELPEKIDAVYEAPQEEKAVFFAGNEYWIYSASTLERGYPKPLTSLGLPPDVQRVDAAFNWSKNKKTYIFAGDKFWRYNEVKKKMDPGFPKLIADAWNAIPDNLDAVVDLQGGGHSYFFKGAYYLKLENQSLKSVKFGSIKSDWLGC
Outline: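 APMA- or trypsin-activated recombinant MMP-2 was incubated at room temperature with serial inhibitor dilutions in Tris buffer pH 7.5 (100 mM NaCl, 10 mM CaCl2, 0.05% Brij), with DMSO from 1% stocks, and 4 μM substrate I. Cleavage was read by fluorescence at 328/415 nm; IC50 was taken from the loss of fluorescence versus inhibitor concentration.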

Human recombinant MMP-1 = target: T2, Human recombinant MMP-1 (Homo sapiens, UniProt P03956)
T2 construct: made in house; host or cells: MMP-1-transfected HT-1080 cells (spent media)
T2 sequence (P03956 100-469): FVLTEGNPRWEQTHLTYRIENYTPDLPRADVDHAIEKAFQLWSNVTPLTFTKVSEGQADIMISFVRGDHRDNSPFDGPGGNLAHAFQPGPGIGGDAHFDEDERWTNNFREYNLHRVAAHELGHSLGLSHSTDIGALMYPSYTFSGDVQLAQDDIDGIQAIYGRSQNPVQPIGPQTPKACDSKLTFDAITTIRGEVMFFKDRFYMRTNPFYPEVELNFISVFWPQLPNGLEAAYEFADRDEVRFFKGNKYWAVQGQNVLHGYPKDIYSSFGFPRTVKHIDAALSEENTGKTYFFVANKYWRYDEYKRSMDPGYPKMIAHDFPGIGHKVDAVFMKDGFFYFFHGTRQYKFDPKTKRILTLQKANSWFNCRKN
Outline: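 APMA- or trypsin-activated enzyme, purified from spent media of transfected HT-1080 cells, incubated at room temperature with 4 μM MCA-Pro-Leu-Gly-Leu-Dpa-Ala-Arg-NH2 and graded inhibitor in Tris buffer pH 7.5 (10 mM CaCl2, 0.05% Brij). Cleavage read by fluorescence (ex 328/em 415 nm); IC50 from fluorescence reduction versus inhibitor concentration.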

Human recombinant MMP-14 = target: T3, Human recombinant MMP-14 (Homo sapiens, UniProt P50281)
T3 construct: The catalytic domain enzyme was expressed in E. coli inclusion bodies, solubilized in urea; made in house
Outline: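 Catalytic-domain MMP-14, expressed in E. coli and refolded, activated with APMA or trypsin; compounds incubated at room temperature with 4 μM fluorogenic substrate I (MCA-PLGL-Dpa-AR-NH2) in Tris/NaCl/CaCl2 buffer, pH 7.5. Fluorescence at ex 328/em 415 nm; IC50 from loss of fluorescence versus inhibitor concentration.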

[1] = substrate (I) 4 μM, room temperature, values not in parenthesis

Q: How did the IC50 (Human recombinant MMP-2; [1]) turn out when `NC(=O)c1cccc(OCCOc2ccc(S(=O)(=O)C3(C(=O)NO)CCOCC3)cc2)c1` [Example 54] was run?
A: Its IC50 is 35.5 nM.

Q: Which results are given for `O=C(NO)C1(S(=O)(=O)c2ccc(OCCCc3cccc(-c4ccc5c(c4)OCO5)c3)cc2)CCOCC1` [Example 628]?
A: IC50 (Human recombinant MMP-1; value outside parentheses): > 10000 nM; IC50 (Human recombinant MMP-14; value outside parentheses): > 10000 nM; IC50 (Human recombinant MMP-2; value outside parentheses): 1700 nM

Q: Which IC50 (Human recombinant MMP-2; value outside parenthesis) does the source give for `O=C(NO)C1(S(=O)(=O)c2ccc(OCCCc3cccc(-c4ccccn4)c3)cc2)CCOCC1` [Example 148] here?
A: The IC50 was 272 nM.

Q: With `O=C(NO)C1(S(=O)(=O)c2ccc(OCCCc3cccc(-c4cccnc4)c3)cc2)CCOCC1` [Example 150] as the compound, how does the IC50 (Human recombinant MMP-1; value outside parenthesis) read?
A: Its IC50 is over 10000 nM.

Q: And the IC50 (Human recombinant MMP-14; value outside parenthesis)?
A: The IC50 was 6630 nM.

Q: What about the IC50 (Human recombinant MMP-2; value outside parenthesis) of the same compound?
A: Its IC50 is 136 nM.

Q: With `O=C(NO)C1(S(=O)(=O)c2ccc(OCCCc3nc(-c4ccccc4)no3)cc2)CCOCC1` [Example 584] as the compound, how does the IC50 (Human recombinant MMP-2; value outside parentheses) read?
A: The IC50 was 72.9 nM.

Q: How did the IC50 (Human recombinant MMP-2; value outside parentheses) turn out when `O=C(NO)C1(S(=O)(=O)c2ccc(OCCCc3cccc(-c4ccc5ccccc5c4)c3)cc2)CCOCC1` [Example 629] was run?
A: The IC50 was 537 nM.

Q: How did the IC50 (Human recombinant MMP-2; value outside parentheses) turn out when `O=C(NO)C1(S(=O)(=O)c2ccc(OCCCc3cccc(-c4coc5ccccc45)c3)cc2)CCOCC1` [Example 634] was run?
A: Its IC50 is 486 nM.

Q: With `Cc1ccc(-c2cccc(CCOc3ccc(S(=O)(=O)C4(C(=O)NO)CCOCC4)cc3)c2)cc1` [Example 127] as the compound, how does the IC50 (Human recombinant MMP-1; value outside parenthesis) read?
A: Its IC50 is over 10000 nM.

Q: And the IC50 (Human recombinant MMP-14; value outside parenthesis)?
A: Its IC50 is over 10000 nM.

Q: What about the IC50 (Human recombinant MMP-2; value outside parenthesis) of the same compound?
A: Its IC50 is 1380 nM.

Q: With `COCCN1CCC(C(=O)NO)(S(=O)(=O)c2ccc(OCCCc3cc(-c4ccc(F)cc4F)cs3)cc2)CC1` [Example 47, 4-[(4-{3-[4-(2,4-difluorophenyl)thien-2-l]propoxy}phenyl)sulfonyl]-N-hydroxy-1-(2-methoxyethyl)piperidine-4-carboxamide Hydrochloride] as the compound, how does the IC50 (Human recombinant MMP-2; [1]) read?
A: Its IC50 is 18.2 nM.

Q: How did the IC50 (Human recombinant MMP-2; value outside parentheses) turn out when `O=C(NO)C1(S(=O)(=O)c2ccc(OCCCc3cccc(-c4cccc5ccccc45)c3)cc2)CCOCC1` [Example 638] was run?
A: The IC50 was 4400 nM.

Q: Which results are given for `O=C(NO)C1(S(=O)(=O)c2ccc(OCCc3cccc(-c4ccc(F)cc4)c3)cc2)CCOCC1` [Example 123]?
A: IC50 (Human recombinant MMP-1; value outside parenthesis): > 10000 nM; IC50 (Human recombinant MMP-14; value outside parenthesis): > 10000 nM; IC50 (Human recombinant MMP-2; value outside parenthesis): 383 nM

Q: `CCN1CCC(C(=O)NO)(S(=O)(=O)c2ccc(OCCCc3cccc(-c4ccccc4)c3)cc2)CC1` [Example 46] was tested. Which IC50 (Human recombinant MMP-1; [1]) did it give?
A: Its IC50 is over 10000 nM.

Q: And the IC50 (Human recombinant MMP-14; [1])?
A: Its IC50 is over 10000 nM.

Q: And the IC50 (Human recombinant MMP-2; [1])?
A: The IC50 was 321 nM.

Q: Which results are given for `O=C(NO)C1(S(=O)(=O)c2ccc(OCCCc3nc(-c4ccc(OC(F)(F)F)cc4)no3)cc2)CCOCC1` [Example 31, tetrahydro-N-hydroxy-4-[[4-[3-[3[4-(trifluoromethoxy)phenyl]-1,2,4-oxadiazol-5-yl]propoxy]phenyl]sulfonyl]-2H-pyran-4-carboxamide]?
A: IC50 (Human recombinant MMP-1; [1]): > 10000 nM; IC50 (Human recombinant MMP-14; [1]): > 10000 nM; IC50 (Human recombinant MMP-2; [1]): 346 nM

Q: Which IC50 (Human recombinant MMP-1; value outside parentheses) does the source give for `O=C(NCCOc1ccc(S(=O)(=O)C2(C(=O)NO)CCOCC2)cc1)c1cc2ccccc2[nH]1` [Example 599] here?
A: The IC50 was over 10000 nM.

Q: What about the IC50 (Human recombinant MMP-14; value outside parentheses) of the same compound?
A: Its IC50 is 57 nM.

Q: What about the IC50 (Human recombinant MMP-2; value outside parentheses) of the same compound?
A: Its IC50 is under 0.1 nM.

Q: Which IC50 (Human recombinant MMP-1; value outside parenthesis) does the source give for `Cc1cc(OC(F)(F)F)ccc1NC(=O)CCCOc1ccc(S(=O)(=O)C2(C(=O)NO)CCOCC2)cc1` [Example 229] here?
A: Its IC50 is 5030 nM.

Q: And the IC50 (Human recombinant MMP-14; value outside parenthesis)?
A: The IC50 was over 10000 nM.

Q: What about the IC50 (Human recombinant MMP-2; value outside parenthesis) of the same compound?
A: Its IC50 is 12.2 nM.

Q: For `O=C(NO)C1(S(=O)(=O)c2ccc(OCCc3cccc(-c4ccccc4F)c3)cc2)CCOCC1` [Example 115], which IC50 (Human recombinant MMP-1; value outside parenthesis) is on record?
A: Its IC50 is over 10000 nM.

Q: What about the IC50 (Human recombinant MMP-14; value outside parenthesis) of the same compound?
A: Its IC50 is over 10000 nM.

Q: And the IC50 (Human recombinant MMP-2; value outside parenthesis)?
A: Its IC50 is 312 nM.

Q: For `O=C(NO)C1(S(=O)(=O)c2ccc(OCCCc3cccc(-c4ccc(F)cc4)c3)cc2)CCN(C2CC2)CC1` [Example 139], which IC50 (Human recombinant MMP-1; value outside parenthesis) is on record?
A: The IC50 was over 10000 nM.

Q: And the IC50 (Human recombinant MMP-14; value outside parenthesis)?
A: Its IC50 is over 10000 nM.

Q: And the IC50 (Human recombinant MMP-2; value outside parenthesis)?
A: Its IC50 is 208 nM.

Q: Which IC50 (Human recombinant MMP-2; value outside parentheses) does the source give for `O=C(NO)C1(S(=O)(=O)c2ccc(OCCCc3cccc(-c4csc5ccccc45)c3)cc2)CCOCC1` [Example 631] here?
A: The IC50 was 2140 nM.

Q: With `O=C(CCCOc1ccc(S(=O)(=O)C2(C(=O)NO)CCOCC2)cc1)Nc1cccc(I)c1` [Example 570] as the compound, how does the IC50 (Human recombinant MMP-2; value outside parentheses) read?
A: Its IC50 is 4.8 nM.

Q: With `COCCN1CCC(C(=O)NO)(S(=O)(=O)c2ccc(OCCCc3nc(-c4ccc(OC(F)(F)F)cc4)no3)cc2)CC1` [Example 190] as the compound, how does the IC50 (Human recombinant MMP-1; value outside parenthesis) read?
A: Its IC50 is over 10000 nM.

Q: And the IC50 (Human recombinant MMP-14; value outside parenthesis)?
A: Its IC50 is over 10000 nM.

Q: And the IC50 (Human recombinant MMP-2; value outside parenthesis)?
A: Its IC50 is 166 nM.

Q: With `O=C(COc1ccc(S(=O)(=O)C2(C(=O)NO)CCOCC2)cc1)c1cccc(-c2ccccc2)c1` [Example 563] as the compound, how does the IC50 (Human recombinant MMP-2; value outside parentheses) read?
A: The IC50 was 73.5 nM.

Q: What does the source list for `COc1ccc(/C(C#N)=C/CCCOc2ccc(S(=O)(=O)C3(C(=O)NO)CCN(C4CC4)CC3)cc2)cc1` [Example 233]?
A: IC50 (Human recombinant MMP-1; value outside parenthesis): > 10000 nM; IC50 (Human recombinant MMP-14; value outside parenthesis): > 10000 nM; IC50 (Human recombinant MMP-2; value outside parenthesis): 25.5 nM
